# Tests used:
# [1] = NCS‐382–diclofenac interaction study (inhibition of NCS‐382 glucuronidation); details: mouse; for AUC(0-t): both, in vivo, 25 mg/kg
# UGT2B7 = tested on: UGT2B7; design: method as in Miners et al. 1997; Ammon et al. 2000; King et al. 2001; details: ref Miners et al. 1997; Ammon et al. 2000; King et al. 2001; cited from earlier work
# GHB binding sites = tested on: GHB binding sites; design: method as in Wellendorph et al. 2009; details: ref Wellendorph et al. 2009; cited from earlier work
# [2] = tested on: gamma‐butyrolactone‐treated mice; assay: GBL‐mediated response protection by NCS‐382 in the absence and presence of diclofenac; type: in vivo; details: mouse; given alone i.p. (NCS‐382 300 mg/kg or diclofenac 25 mg/kg) 30 min before GBL 100 mg/kg i.p.
# UGT1A9 = tested on: UGT1A9; design: method as in Miners et al. 1997; Ammon et al. 2000; King et al. 2001; details: ref Miners et al. 1997; Ammon et al. 2000; King et al. 2001; cited from earlier work
# [3] = tested on: monocarboxylate transporter 1 (MCT1); design: method as in Tamai et al. 1999; Wang and Morris 2007; details: ref Tamai et al. 1999; Wang and Morris 2007; cited from earlier work
# [4] = Excretion of NCS‐382 in urine and feces (metabolic cages); type: in vivo; details: mouse, reanalyzed samples of study 1
# Experimental: To ensure sufficient volumes of urine could be collected in each of the 2 h time intervals (baseline, 0–2, 2–4, 4–6, 6–8 h), three mice were dosed simultaneously and their urine and feces pooled for analysis. The total dose in μg administered to the three animals was therefore used to calculate the percent of the dose excreted in the urine pooled from all three mice. Animals were allowed ad libitum access to food and water of which the intake of each was monitored.
# Samples (3 μL) were injected onto a Kinetex PFP (50 × 2.1 mm, 1.7 μm particle size) UPLC column and eluted with a binary gradient consisting of water with 0.1% formic acid (mobile phase A) and methanol with 0.1% formic acid (mobile phase B). […] Eluent was directed to waste for the initial 0.4 min then to an ABI Sciex 6500 Qtrap tandem mass spectrometer. […] Where necessary, samples were diluted in blank matrices for analysis.
# Pharmacokinetic outcomes were obtained via standard noncompartmental methods using Kinetica (version 5.1, Thermo Fisher Scientific, Waltham, MA). The maximum concentration (C max) was obtained directly from the concentration–time profiles. Area under the concentration–time curve (AUC) from time zero to the last collected time point was determined using the trapezoidal method with linear up/log down interpolation.
# [5] = treatment Diclofenac 25 mg/kg alone
# [6] = treatment NCS‐382 300 mg/kg + Diclofenac 25 mg/kg
# [7] = treatment NCS‐382 300 mg/kg alone
smiles,measurement,setting,value
"O=C(O)Cc1ccccc1Nc1c(Cl)cc(O)cc1Cl [4‐OH‐Diclofenac, 4′‐hydroxydiclofenac]","Sera AUC0–2 h [90% CI], relative quantification (peak area ratio)",[1]; [5],6.76 [5.18–8.33] PAR*h
same,"Sera AUC0–2 h [90% CI], relative quantification (peak area ratio)",[1]; [6],8.28 [7.60–8.97] PAR*h
"O=C(O)Cc1cc(O)ccc1Nc1c(Cl)cccc1Cl [5‐OH‐Diclofenac, 5‐hydroxydiclofenac]",AUC(0-t),[1],61.3 µM·h
same,Brain AUC0–2 h [90% CI],[1]; [5],4.60 [4.55–4.65] nmol g/tissue*h
same,Brain AUC0–2 h [90% CI],[1]; [6],5.20 [4.77–5.62] ^a nmol g/tissue*h
O=C(Cc1ccccc1Nc1c(Cl)cccc1Cl)O[C@@H]1O[C@H](C(=O)O)[C@@H](O)[C@H](O)[C@H]1O [Diclofenac glucuronide],"Brain AUC0–2 h [90% CI], relative quantification (peak area ratio)",[1]; [5],5.87 [4.46–7.28] PAR*h
same,"Sera AUC0–2 h [90% CI], relative quantification (peak area ratio)",[1]; [5],8.57 [6.09–11.04] PAR*h
same,"Brain AUC0–2 h [90% CI], relative quantification (peak area ratio)",[1]; [6],3.96 [3.25–4.67] PAR*h
same,"Sera AUC0–2 h [90% CI], relative quantification (peak area ratio)",[1]; [6],4.67 [4.21–5.13] ^a PAR*h
O=C(O)Cc1ccccc1Nc1c(Cl)cccc1Cl [Diclofenac],Ki,UGT2B7,[…]
same,binding to GHB binding sites in rat brain,GHB binding sites,ligand for the GHB binding sites in rat brain
same,time to loss of motor function compared to vehicle control,[2],did not have a measureable effect
same,Ki,UGT1A9,11 µM
same,AUC(0-t),[1],232 µM·h
same,Brain AUC0–2 h [90% CI],[1]; [5],33.8 [28.2–39.4] nmol/g/tissue*h
same,Brain AUC0–2 h [90% CI],[1]; [6],44.9 [39.5–50.3] ^a nmol/g/tissue*h
"O=C(O)CCCO [GHB, gamma‐hydroxybutyric acid]",Km,[3],4.6 to 7.7 mM
O=C(O)/C=C1\CCCc2ccccc2C1=O [NCS dehydrogenation],detection of NCS‐382 metabolites in urine and feces,[4],found in neither
same,"Sera AUC0–2 h [90% CI], relative quantification (peak area ratio)",[1]; [6],2.72 [2.26–3.18] ^a PAR*h
same,"Sera AUC0–2 h [90% CI], relative quantification (peak area ratio)",[1]; [7],1.99 [1.82–2.16] PAR*h
O=C(O)/C=C1\CCCc2ccccc2C1O[C@@H]1O[C@H](C(=O)O)[C@@H](O)[C@H](O)[C@H]1O (stereo partly shown) [NCS‐Glucuronide],detection of NCS‐382 metabolites in urine and feces,[4],detectable in both the urine and feces
same,"Brain AUC0–2 h [90% CI], relative quantification (peak area ratio)",[1]; [6],4.58 [3.61–5.55] PAR*h
same,"Sera AUC0–2 h [90% CI], relative quantification (peak area ratio)",[1]; [6],2.86 [2.55–3.18] PAR*h
same,"Brain AUC0–2 h [90% CI], relative quantification (peak area ratio)",[1]; [7],3.28 [2.53–4.03] PAR*h
same,"Sera AUC0–2 h [90% CI], relative quantification (peak area ratio)",[1]; [7],3.65 [2.65–4.65] PAR*h
